According to publication PMC10597453, “Novel inhibitors that target bacterial virulence identified via HTS against intra-macrophage survival of Shigella flexneri” (mSphere, 2023):
Converted amounts (≈) assume the structure as drawn. Where two headings read alike, the source gives them in different places.

Assays:
[1] = test system: S. flexneri 2457T-nl in THP-1 macrophages; assay: Shigella intra-macrophage survival dose-response assay (luciferase readout)
Description: The experimental protocol for the Shigella intra-macrophage survival screen is divided into three time segments: (i) THP-1 macrophage and bacteria preparation 1 day prior to compound screen assay, (ii) THP-1 differentiation, invasion, gentamicin treatment, dispensing of infected cells onto plates pre-dispensed with compounds to be tested, and the beginning of their incubation performed on the same day, and (iii) dispensing of the Nano-Luc substrate and luminescence readout after 18 hours of incubation.
The assay was adapted to the 1,536-well plate format for the HTS. A multidrop dispenser with the small tube metal tip cassette (Thermo Fisher Scientific) was used to seed 5 µL of the cell suspension to plates pre-dispensed with compounds to be tested that were transferred to RT 1–1.5 hours before adding infected cells. Plates were incubated for 18 hours at 37°C in a humidified atmosphere with 5% CO2.
After incubation, the bacterial count is quantified by luminescence readout. Luminescence correlated linearly with the number of viable bacteria. The Nano-Luc substrate solution was prepared according to the manufacturer (Nano-Glo Luciferase Assay System, Promega, Madison, WI, USA). A multidrop dispenser with the small tube metal tip cassette (Thermo Fisher Scientific) was used to dispense 2 µL of substrate per well, and plates were stored in the dark prior to reading. Luminescence was read (0.1 s/well) on a microplate reader (EnVision, PerkinElmer) after 30 minutes of incubation at RT.
The dose-response assay was performed following the above protocol using different plate formats.

[2] = target: T1, Nano-Luc reporter (S. flexneri 2457T-nl reporter strain) (Oplophorus gracilirostris, UniProt Q9GV45, A31E/A60N/A81I/F95D/I117V/K70R/L54V/L99Q/M102K/N193R/P142E/Q151K/Q38R/Q45L/V71I/Y165I); assay: Nano-Luc inhibition (assay readout interference); type: cell-based
T1 construct: expressed in transfected cells; host or cells: Shigella flexneri serotype 2a strain 2457T carrying plasmid pMK-RQ-nl
T1 sequence (Q9GV45 28-196 with tags or gaps with the stated changes limits assumed): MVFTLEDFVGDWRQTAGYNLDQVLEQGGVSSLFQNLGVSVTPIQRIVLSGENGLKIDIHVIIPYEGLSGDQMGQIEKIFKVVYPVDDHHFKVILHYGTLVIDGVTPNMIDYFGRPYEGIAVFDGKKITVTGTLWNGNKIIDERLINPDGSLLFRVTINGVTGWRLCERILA

[3] = test system: Shigella propagation in Caco2 cells; assay: Inhibition of Shigella propagation in Caco2 cells assay; type: cell-based, Shigella flexneri; conditions: for IC50: INCACO2CELLS, Caco-2
Description: The inhibition of Shigella propagation in Caco2 cells assay was performed following the previously described protocol based on microcarrier cell culture which models the in vivo three-dimensional environment with the minor modifications. This protocol will be described in a forthcoming paper (V. Phat, A. Lim, S. Lozano, C. De Cozar-Gallardo, M. Castellote-Alvaro, J. Rodrigues, A. Villegas, D. Alvarez, E. Alvaro, L. Ballell-Pages, S. Baker, unpublished data) and is available upon request (see Data Availability Statement).

S. flexneri 2457T = assay: Shigella antibacterial assay (resazurin); type: cell-based, Shigella flexneri; conditions: for MIC90: S. flexneri 2457T, resazurin assay
Description: An antibacterial assay against S. flexneri 2457T was performed according to the previously described protocol ([40]). The antibacterial assay was used to determine the MIC90 values of potential inhibitors for S. flexneri 2457T. The assay measures the effect of compounds on the bacteria using resazurin (Thermo Fisher Scientific) measurement as surrogate of bacterial viability. Briefly, to perform the extracellular dose responses, compounds were pre-dispensed in DMSO, and threefold serial dilutions were made for each compound into 384-well plate format. Bacterial inoculum for the assay was prepared in MH medium, resulting at 1 × 10^6 CFU/mL, and 5 µL of this culture was dispensed per well. Then, plates were incubated at 37°C overnight. The resazurin reagent (10 µL) was added to each well followed by an incubation at RT and darkness for 3 hours. The fluorescence intensity of the assay plates was measured using microplate reader (EnVision, PerkinElmer). For MIC90 determination, data were normalized by using DMSO at a final concentration of 0.5% as the negative control (100% bacterial growth) and moxifloxacin at a final concentration of 20 µM as the positive control (0% bacterial growth). The experiment was done in duplicate.

[4] = Shigella flexneri, THP-1, 18 h, read-out: Survival inhibition IC50
[5] = Shigella flexneri, THP-1, read-out: Shigella Intra-macrophage Survival IC50
[6] = read-out: Nano-Luc interference IC50, S. flexneri 2457T-nl reporter strain in MH medium, 18 hours

| SMILES | IC50 [1, 4] [nM] | IC50 [2] [nM] | IC50 [3] [nM] | also measured |
| --- | --- | --- | --- | --- |
| Cc1ccc(-n2cc(C(=O)c3cc(C)ccc3O)cc(C#N)c2=O)cc1 [AN1-152-05] | 100 | 12000 | 300 | – |
| O=C(O)c1cn(C2CC2)c2cc(N3CCNCC3)c(F)cc2c1=O [Ciprofloxacin, ciprofloxacin, reference compound] | – | – | – | IC50 [1, 5]: 7 nM; MIC90 (S. flexneri 2457T; Shigella flexneri): 0.07 µM (≈ 0.0232 µg/mL) |
| CC(NC(=O)NC(C)c1cccs1)c1ccc2c(c1)OCCO2 (centres unmarked) [Compound S-378-01] | 1000 | – | 6600 | – |
| COc1ccc(-c2ccn(CC[C@](C)(C(=O)NO)S(C)(=O)=O)c(=O)c2)c(F)c1 [PF-5081090, reference compound] | – | – | – | IC50 ([1]; read-out: Shigella Intra-macrophage Survival IC50, commercially available antibiotics, luciferase assay): 60 nM; MIC90 (S. flexneri 2457T): 0.2 µM (≈ 0.0825 µg/mL) |
| Cc1c(-c2cccs2)[nH]c2c(C#N)cnn2c1=O [AN-5-02] | 90 | 780 | 2100 | – |
| c1ccc(-n2nnnc2-c2cnoc2-c2cccs2)cc1 [PT-297–03] | 500 | 8100 | 3000 | – |
| CC(C)(C)C(=O)OCOC(=O)[C@@H]1N2C(=O)[C@@H](/N=C/N3CCCCCC3)[C@H]2SC1(C)C [Pivmecillinam, pivmecillinam] | – | – | – | IC50 [1, 5]: 900 nM; MIC relative to survival IC50 (times higher) (S. flexneri 2457T; MIC vs intra-macrophage survival IC50): very similar; MIC90 (S. flexneri 2457T; Shigella flexneri): 1 µM (≈ 0.44 µg/mL) |
| COc1ccc(-n2cc(C(=O)c3cc(C)ccc3O)cc(C#N)c2=O)cc1 [AN1-152-07] | 210 | 27000 | 200 | – |
| O=S(=O)(Nc1ccccc1C(F)(F)F)c1ccc(-c2ccc(F)cc2)s1 [DS1-32-05] | 560 | 3000 | 3100 | – |
| Fc1ccc(-c2oncc2-c2nnnn2-c2ccccc2)c(F)c1 [PT-297-01] | 430 | 8300 | 2100 | – |
| COc1ccc(CCNC(=O)c2nc(O)c3nnn(Cc4ccc(F)cc4)c3n2)cc1OC [Compound S-169-01] | 590 | 12000 | 21000 | – |
| Cc1cccc(-n2cc(C(=O)c3cc(F)ccc3O)cc(C#N)c2=O)c1 [AN1-152-09] | 730 | – | 10000 | – |
| Cc1ccccc1-c1c(C#N)c(N)nc(SCc2ccccc2)c1C#N [AN1-77-01] | 790 | – | 14000 | – |
| Cc1ccc(NC(=O)CC2SC(N3N=C(c4cccs4)CC3c3ccccc3)=NC2=O)cc1 (centres unmarked) [Compound S-10-03] | 620 | – | 1100 | – |
| N#Cc1ccc(C(=O)Nc2cccc(-c3ccc(CN4CCNCC4)cc3)c2)cc1 [AN-30-01] | 880 | – | – | Propagation in Caco2 IC50 [3]: Inactive |
| N#Cc1ccc(C(=O)Nc2nnc(-c3ccncc3)s2)cc1 [AN2-45-02] | 890 | – | 14000 | – |
| CCc1cccc(CC)c1NC(=O)c1c(-c2ccccc2)noc1C [Compound S-53-01] | 170 | 1200 | 1500 | – |
| N#Cc1cc(C(=O)c2ccccc2O)cn(-c2ccccn2)c1=O [AN1-152-01] | 310 | 25000 | 2700 | – |
| CCN(C(=O)Cn1c(-c2nonc2N)nc2ccccc21)c1ccccc1 [Compound S-134-02] | 680 | 5100 | 4900 | – |
| Cc1ccc(C2=NN(C3=NC(=O)C(CC(=O)Nc4ccccc4)S3)C(c3ccccc3)C2)cc1 (centres unmarked) [Compound S-10-01] | 410 | 11000 | 500 | – |
| O=C(CN1CCc2ccccc2C1)Nc1cnccc1C(=O)O [Compound S-136-01] | 620 | 3000 | 3100 | – |

| SMILES | IC50 [1, 4] [nM] | IC50 [2] [nM] | IC50 [3] [nM] | also measured |
| --- | --- | --- | --- | --- |
| Cc1noc2ncn(Cc3nc(Cc4ccccc4F)no3)c(=O)c12 [Compound S-82-01] | 1000 | 19000 | 19000 | – |
| COc1ccc(N2CCN(c3nc4ncccc4o3)CC2)cc1 [Compound S-281-01] | 640 | 28000 | 24000 | – |
| CN(C(=O)Cc1cccs1)C1(C(=O)NC2CCCCC2)CCCCC1 [Compound S-185-01] | 700 | – | 4300 | IC50 [2, 6]: 3800 nM |
| Cc1ccc(-n2cc(C(=O)c3cc(Cl)ccc3O)cc(C#N)c2=O)cc1 [AN1-152-04] | 570 | – | 6200 | – |
| COc1c(N2C[C@@H]3CCCN[C@@H]3C2)c(F)cc2c(=O)c(C(=O)O)cn(C3CC3)c12 [moxifloxacin, reference compound] | – | – | – | bacterial survival ([1]; 20 µM, macrophage permeable positive control): no detectable bacterial survival |
| N#Cc1cc(C(=O)c2ccccc2O)cn(-c2ccc(Cl)cc2)c1=O [AN1-152-02] | 3.9 | 3700 | 300 | – |
| O=S(=O)(Nc1ccc(F)cc1C(F)(F)F)c1ccc(-c2cccs2)s1 [DS1-32-04] | 410 | – | 3800 | IC50 [2, 6]: 3100 nM |
| N#Cc1cc(C(=O)c2ccccc2O)cn(C2CCCC2)c1=O [AN1-152-03] | 480 | 62000 | 1700 | – |
| CC1(C)S[C@@H]2[C@H](/N=C/N3CCCCCC3)C(=O)N2[C@H]1C(=O)O [Mecillinam, mecillinam, reference compound] | – | – | – | IC50 [1, 5]: 700 nM; MIC90 (S. flexneri 2457T; Shigella flexneri): 0.2 µM (≈ 0.0651 µg/mL) |
| Fc1ccc(-c2oncc2-c2nnnn2-c2ccccc2)cc1F [PT-297-02] | 270 | 4900 | 1200 | – |
| COc1ccc(S(=O)(=O)Nc2ccc(Cl)cc2F)cc1[N+](=O)[O-] [DS2-187-03] | 700 | – | 3000 | – |
| COc1ccc2nc(NS(=O)(=O)c3cccc(C#N)c3)sc2c1 [DS-64-06] | 440 | 9500 | 3100 | – |
| COc1ccc(-n2nnnc2SC(C(=O)N(C)C)c2ccccc2)cc1 (centres unmarked) [Compound S-28-01] | 990 | 5000 | 4500 | – |
| COc1ccc(CN(C)S(=O)(=O)c2nnc(NC(=O)c3cccc(Cl)c3)s2)cc1OC [DS-299-02] | 800 | 4600 | 2500 | – |
| Cc1cc(CNC(=O)CCc2c(C)nc3cc(O)nn3c2C)no1 [Compound S-86-01] | 270 | 1700 | 1000 | – |
| Cc1nn(-c2ccccc2)c(C)c1S(=O)(=O)Nc1nc2c(s1)CCCC2 [DS-61-01] | 500 | 2200 | 2300 | – |
| Cc1ncccc1Oc1ncc(Cl)cc1S(=O)(=O)Nc1cccc(Cl)c1 [DS-90-01] | 1200 | 65000 | 10000 | – |
| Cc1ccc(-n2cc(C(=O)c3cc(F)ccc3O)cc(C#N)c2=O)cc1 [AN1-152-08] | 430 | – | 1900 | – |
| CCOc1ccc(-n2cc(C(=O)c3cc(F)ccc3O)cc(C#N)c2=O)cc1 [AN1-152-10] | 240 | 50000 | – | Propagation in Caco2 IC50 [3]: Inactive |
| COc1ccc(-n2cc(C(=O)c3cc(Cl)ccc3O)cc(C#N)c2=O)cc1 [AN1-152-06] | 490 | – | 3900 | – |
| CC(C)c1noc2ncc(C(=O)c3ccccc3O)cc12 [Compound S-316-01] | 1300 | – | 1900 | – |
